# Test results: ChEMBL document CHEMBL3885881, “DrugMatrix”
# Species: Rattus norvegicus
# Experiment: DrugMatrix - Regimen: Daily Repeat
# Type: toxicity, organism-based, Sprague-Dawley
# Set-up: regimen Daily Repeat, gender Male, age 6-8 weeks
# Details: in vivo, po, route oral GAVAGE, vehicle .5 % CMC; for ABSOLUTE BASOPHIL / ABSOLUTE EOSINOPHIL / ABSOLUTE LYMPHOCYTE / ABSOLUTE MONOCYTE / ABSOLUTE SEGMENTED NEUTROPHIL / BASOPHIL / EOSINOPHIL / ERYTHROCYTE COUNT / HEMATOCRIT / HEMOGLOBIN / LEUKOCYTE COUNT / LYMPHOCYTE / MEAN CORPUSCULAR HEMOGLOBIN / MEAN CORPUSCULAR HEMOGLOBIN CONCENTRATION / MEAN CORPUSCULAR VOLUME / MONOCYTE / NEUTROPHIL / NUCLEATED RED BLOOD CELLS / PLATELET COUNT: tissue Blood; for ALANINE AMINOTRANSFERASE / ALBUMIN / ALKALINE PHOSPHATASE / ASPARTATE AMINOTRANSFERASE / BLOOD UREA NITROGEN / CARBON DIOXIDE / CHLORIDE / CHOLESTEROL / CREATINE PHOSPHOKINASE / CREATININE / GLUCOSE / LACTATE DEHYDROGENASE / LIPASE / PHOSPHORUS / POTASSIUM / SODIUM / TOTAL BILIRUBIN / TOTAL PROTEIN / URIC ACID: tissue Plasma
# [1] = 60 mg/kg, 72 h, dose level Low, time 3 day
# [2] = 60 mg/kg, 120 h, dose level Low, time 5 day
# [3] = 1200 mg/kg, 72 h, dose level High, time 3 day
# [4] = 1200 mg/kg, 120 h, dose level High, time 5 day
compound,measurement,setting,value
CCS(=O)(=O)CCn1c([N+](=O)[O-])cnc1C [TINIDAZOLE],ABSOLUTE BASOPHIL,[1],0 CELLS/uL
same,ABSOLUTE EOSINOPHIL,[1],339 CELLS/uL
same,ABSOLUTE LYMPHOCYTE,[1],11000.67 CELLS/uL
same,ABSOLUTE MONOCYTE,[1],171.33 CELLS/uL
same,ABSOLUTE SEGMENTED NEUTROPHIL,[1],989 CELLS/uL
same,BASOPHIL,[1],0%
same,EOSINOPHIL,[1],2.67%
same,ERYTHROCYTE COUNT,[1],5.79 x10E6/uL
same,HEMATOCRIT,[1],34.93%
same,HEMOGLOBIN,[1],13.13 G/DL
same,LEUKOCYTE COUNT,[1],12.5 x10E3/uL
same,LYMPHOCYTE,[1],88%
same,MEAN CORPUSCULAR HEMOGLOBIN,[1],22.67 pg
same,MEAN CORPUSCULAR HEMOGLOBIN CONCENTRATION,[1],37.67 G/DL
same,MEAN CORPUSCULAR VOLUME,[1],60.2 fL
same,MONOCYTE,[1],1.33%
same,NEUTROPHIL,[1],8%
same,NUCLEATED RED BLOOD CELLS,[1],0 /100WBC
same,PLATELET COUNT,[1],1415.67 x10E3/uL
same,ALANINE AMINOTRANSFERASE,[1],51.33 u/L
same,ALBUMIN,[1],4.33 G/DL
same,ALKALINE PHOSPHATASE,[1],361.33 u/L
same,ASPARTATE AMINOTRANSFERASE,[1],96.67 u/L
same,BLOOD UREA NITROGEN,[1],14.67 mg/dL
same,CARBON DIOXIDE,[1],26 mmol/L
same,CHLORIDE,[1],105 MEQ/L
same,CHOLESTEROL,[1],71 mg/dL
same,CREATINE PHOSPHOKINASE,[1],896 u/L
same,CREATININE,[1],0.17 mg/dL
same,GLUCOSE,[1],168 mg/dL
same,LACTATE DEHYDROGENASE,[1],108.33 u/L
same,LIPASE,[1],9 u/L
same,PHOSPHORUS,[1],14.2 mg/dL
same,POTASSIUM,[1],6.01 MEQ/L
same,SODIUM,[1],145.6 MEQ/L
same,TOTAL BILIRUBIN,[1],0.23 mg/dL
same,TOTAL PROTEIN,[1],5.87 G/DL
same,URIC ACID,[1],2.47 mg/dL
same,ABSOLUTE BASOPHIL,[2],0 CELLS/uL
same,ABSOLUTE EOSINOPHIL,[2],103.33 CELLS/uL
same,ABSOLUTE LYMPHOCYTE,[2],13904.67 CELLS/uL
same,ABSOLUTE MONOCYTE,[2],205.33 CELLS/uL
same,ABSOLUTE SEGMENTED NEUTROPHIL,[2],1020 CELLS/uL
same,BASOPHIL,[2],0%
same,EOSINOPHIL,[2],0.67%
same,ERYTHROCYTE COUNT,[2],5.73 x10E6/uL
same,HEMATOCRIT,[2],35.5%
same,HEMOGLOBIN,[2],13.43 G/DL
same,LEUKOCYTE COUNT,[2],15.23 x10E3/uL
same,LYMPHOCYTE,[2],91.33%
same,MEAN CORPUSCULAR HEMOGLOBIN,[2],23.43 pg
same,MEAN CORPUSCULAR HEMOGLOBIN CONCENTRATION,[2],37.83 G/DL
same,MEAN CORPUSCULAR VOLUME,[2],61.97 fL
same,MONOCYTE,[2],1.33%
same,NEUTROPHIL,[2],6.67%
same,NUCLEATED RED BLOOD CELLS,[2],0.33 /100WBC
same,PLATELET COUNT,[2],1361.67 x10E3/uL
same,ALANINE AMINOTRANSFERASE,[2],48 u/L
same,ALBUMIN,[2],4.23 G/DL
same,ALKALINE PHOSPHATASE,[2],407 u/L
same,ASPARTATE AMINOTRANSFERASE,[2],87 u/L
same,BLOOD UREA NITROGEN,[2],18 mg/dL
same,CARBON DIOXIDE,[2],26.33 mmol/L
same,CHLORIDE,[2],107 MEQ/L
same,CHOLESTEROL,[2],76.33 mg/dL
same,CREATINE PHOSPHOKINASE,[2],445.33 u/L
same,CREATININE,[2],0.21 mg/dL
same,GLUCOSE,[2],165.33 mg/dL
same,LACTATE DEHYDROGENASE,[2],155 u/L
same,LIPASE,[2],9 u/L
same,PHOSPHORUS,[2],13.63 mg/dL
same,POTASSIUM,[2],6.07 MEQ/L
same,SODIUM,[2],145.9 MEQ/L
same,TOTAL BILIRUBIN,[2],0.17 mg/dL
same,TOTAL PROTEIN,[2],6.5 G/DL
same,URIC ACID,[2],2.07 mg/dL
same,ABSOLUTE BASOPHIL,[3],0 CELLS/uL
same,ABSOLUTE EOSINOPHIL,[3],0 CELLS/uL
same,ABSOLUTE LYMPHOCYTE,[3],8834.67 CELLS/uL
same,ABSOLUTE MONOCYTE,[3],232.67 CELLS/uL
same,ABSOLUTE SEGMENTED NEUTROPHIL,[3],799.33 CELLS/uL
same,BASOPHIL,[3],0%
same,EOSINOPHIL,[3],0%
same,ERYTHROCYTE COUNT,[3],5.53 x10E6/uL
same,HEMATOCRIT,[3],35.63%
same,HEMOGLOBIN,[3],13.37 G/DL
same,LEUKOCYTE COUNT,[3],9.87 x10E3/uL
same,LYMPHOCYTE,[3],89.67%
same,MEAN CORPUSCULAR HEMOGLOBIN,[3],24.17 pg
same,MEAN CORPUSCULAR HEMOGLOBIN CONCENTRATION,[3],37.57 G/DL
same,MEAN CORPUSCULAR VOLUME,[3],64.4 fL
same,MONOCYTE,[3],2.33%
same,NEUTROPHIL,[3],8%
same,NUCLEATED RED BLOOD CELLS,[3],0 /100WBC
same,PLATELET COUNT,[3],1043.67 x10E3/uL
same,ALANINE AMINOTRANSFERASE,[3],47 u/L
same,ALBUMIN,[3],4.5 G/DL
same,ALKALINE PHOSPHATASE,[3],362.67 u/L
same,ASPARTATE AMINOTRANSFERASE,[3],80.33 u/L
same,BLOOD UREA NITROGEN,[3],15.33 mg/dL
same,CARBON DIOXIDE,[3],28 mmol/L
same,CHLORIDE,[3],106 MEQ/L
same,CHOLESTEROL,[3],89.33 mg/dL
same,CREATINE PHOSPHOKINASE,[3],226.67 u/L
same,CREATININE,[3],0.24 mg/dL
same,GLUCOSE,[3],123 mg/dL
same,LACTATE DEHYDROGENASE,[3],186 u/L
same,LIPASE,[3],9.33 u/L
same,PHOSPHORUS,[3],11.47 mg/dL
same,POTASSIUM,[3],6.78 MEQ/L
same,SODIUM,[3],150.07 MEQ/L
same,TOTAL BILIRUBIN,[3],0.3 mg/dL
same,TOTAL PROTEIN,[3],6.13 G/DL
same,URIC ACID,[3],1 mg/dL
same,ABSOLUTE BASOPHIL,[4],0 CELLS/uL
same,ABSOLUTE EOSINOPHIL,[4],57.67 CELLS/uL
same,ABSOLUTE LYMPHOCYTE,[4],15287.67 CELLS/uL
same,ABSOLUTE MONOCYTE,[4],50.33 CELLS/uL
same,ABSOLUTE SEGMENTED NEUTROPHIL,[4],2437.67 CELLS/uL
same,BASOPHIL,[4],0%
same,EOSINOPHIL,[4],0.33%
same,ERYTHROCYTE COUNT,[4],5.86 x10E6/uL
same,HEMATOCRIT,[4],35.6%
same,HEMOGLOBIN,[4],13.2 G/DL
same,LEUKOCYTE COUNT,[4],17.83 x10E3/uL
same,LYMPHOCYTE,[4],85%
same,MEAN CORPUSCULAR HEMOGLOBIN,[4],22.53 pg
same,MEAN CORPUSCULAR HEMOGLOBIN CONCENTRATION,[4],37.07 G/DL
same,MEAN CORPUSCULAR VOLUME,[4],60.8 fL
same,MONOCYTE,[4],0.33%
same,NEUTROPHIL,[4],14.33%
same,NUCLEATED RED BLOOD CELLS,[4],0 /100WBC
same,PLATELET COUNT,[4],1437 x10E3/uL
same,ALANINE AMINOTRANSFERASE,[4],43.33 u/L
same,ALBUMIN,[4],4.3 G/DL
same,ALKALINE PHOSPHATASE,[4],276.33 u/L
same,ASPARTATE AMINOTRANSFERASE,[4],79.67 u/L
same,BLOOD UREA NITROGEN,[4],19.33 mg/dL
same,CARBON DIOXIDE,[4],25 mmol/L
same,CHLORIDE,[4],105 MEQ/L
same,CHOLESTEROL,[4],76.67 mg/dL
same,CREATINE PHOSPHOKINASE,[4],212.67 u/L
same,CREATININE,[4],0.29 mg/dL
same,GLUCOSE,[4],152 mg/dL
same,LACTATE DEHYDROGENASE,[4],226.67 u/L
same,LIPASE,[4],8.67 u/L
same,PHOSPHORUS,[4],12.57 mg/dL
same,POTASSIUM,[4],6.85 MEQ/L
same,SODIUM,[4],146.2 MEQ/L
same,TOTAL BILIRUBIN,[4],0.13 mg/dL
same,TOTAL PROTEIN,[4],6.7 G/DL
same,URIC ACID,[4],2.17 mg/dL
